According to patent publication US10130641B2, “Compositions of vitamin D and methods for their use and manufacture” (priority 2015, dated 2018):

Assay: Plasma concentration of vitamin D3 in rats after a single oral dose (absorption / bioavailability study)
Assay type: in vivo, Wistar rats
Details: for Cmax / Tmax / AUC: Area Under the plasma conc.-time Curve: rat plasma, 50,000 IU oral; for AUC: Area Under the plasma conc.-time Curve: trapezoid rule; for Mean plasma concentration of vitamin D3: rat, 50,000 IU oral
Description: The present study was undertaken to compare the rate of absorption of vitamin D3, from formulated vitamin D3 with tomato seed oil and high-fat meal. The absorption was studied by serial measurements of the plasma concentration of vitamin D3 after ingestion of a pharmacological dose of the vitamin dissolved in the vehicles.
Male Albino Wistar rats were used. Animals were kept under a twelve-hour light/dark cycle. Group I was treated with normal diet and vitamin D3 (50,000 IU). Group II was given Vitamin D3 (50,000 IU) with High-Fat diet. Group III was treated with Vitamin D3 (50,000 IU) formulation in tomato seed oil orally. 10 mL/kg body weight was used for gavage administration. […] Animals were ether anesthetized and blood samples (approximately 0.5 mL) were collected via retro-orbital sinus puncture.
Blood samples were collected in heparinized eppendorf tubes. Tubes were inverted several times to mix and were then placed on ice and centrifuged to separate plasma within 1 h time. After centrifugation, plasma was transferred into storage tubes (0.5 mL), which were stored frozen (approximately −70° C.) until analyzed.
Plasma processing involved liquid-liquid extraction using acetonitrile and methanol (80:20). 100 μL aliquot of plasma was mixed with 1 mL of acetonitrile and methanol. After vortex mixing for 1 min, the sample was centrifuged at 7,000 rpm at 4° C. for 10 min to remove precipitated proteins; the supernatant was transferred to a clean tube and dried under nitrogen at room temperature (approximately 25° C.). After the evaporation was completed, the residue was reconstituted in 100 μL of methanol with 5 min of sonication, added to 400 μL of water, vortex mixed, and centrifuged again. The resulting supernatant was transferred to a sample vial for instrumental analysis.
Chromatography was performed using a Phenomenex C18 […]×4.6 mm, 5 μm column, maintained at a temperature of 35° C. A flow rate of 1 mL/min was used; mobile phase acetonitrile and methanol (80:20); elution gradient program, injection volume 5 μL, detection UV, 280 nm. Total run time was 15 min.
The data was represented in a plasma level-time curve. The area under time curve (AUC) was calculated using Trapezoid rule. The maximum concentration (Cmax) and maximum time (Tmax) were obtained directly from generated data. The maximum plasma concentration (Cmax) and the time to reach Cmax (Tmax) were obtained directly from the plasma concentration-time curve. All values were expressed as mean±standard deviation (SD) except Tmax mentioned as median.

Compound | Cmax (high-fat diet) [ng/mL] | Tmax (high-fat diet) [h] | AUC: Area Under the plasma conc.-time Curve (high-fat diet) | Mean plasma concentration of vitamin D3 (high-fat diet, 0 min) [ng/mL] | Mean plasma concentration of vitamin D3 (high-fat diet, 30 min) [ng/mL] | Cmax (normal diet) [ng/mL] | Tmax (normal diet) [h] | AUC: Area Under the plasma conc.-time Curve (normal diet) | Mean plasma concentration of vitamin D3 (normal diet, 0 min) [ng/mL] | Mean plasma concentration of vitamin D3 (normal diet, 30 min) [ng/mL] | Mean plasma concentration of vitamin D3 (normal diet, 1 hrs) [ng/mL] | Mean plasma concentration of vitamin D3 (normal diet, 2 hrs) [ng/mL] | Mean plasma concentration of vitamin D3 (normal diet, 3 hrs) [ng/mL] | Mean plasma concentration of vitamin D3 (normal diet, 4 hrs) [ng/mL] | Mean plasma concentration of vitamin D3 (normal diet, 6 hrs) [ng/mL] | Mean plasma concentration of vitamin D3 (normal diet, 8 hrs) [ng/mL] | Mean plasma concentration of vitamin D3 (normal diet, 12 hrs) [ng/mL] | Mean plasma concentration of vitamin D3 (normal diet, 24 hrs) [ng/mL] | Mean plasma concentration of vitamin D3 (normal diet, 48 hrs) [ng/mL] | Mean plasma concentration of vitamin D3 (normal diet, 72 hrs) [ng/mL]
C=C1CC[C@H](O)C/C1=C/C=C1\CCC[C@]2(C)[C@@H]([C@H](C)CCCC(C)C)CC[C@@H]12 [Vitamin D3 + High-Fat Diet, cholecalciferol] | 86090 ± 12140 | 12 | 1595 + 600.6 μg · hr/ml | 0 | 0 |  |  |  |  |  |  |  |  |  |  |  |  |  |  | 
C=C1CC[C@H](O)C/C1=C/C=C1\CCC[C@]2(C)[C@@H]([C@H](C)CCCC(C)C)CC[C@@H]12 [Vitamin D3 + Normal Diet, cholecalciferol] |  |  |  |  |  | 47030 ± 4150 | 24 | 3478 + 1758 μg · hr/ml | 0 | 0 | 1867 ± 800 | 4310 ± 1530 | 9870 ± 4140 | 12000 ± 4970 | 10740 ± 8060 | 13590 ± 4160 | 16060 ± 3500 | 47030 ± 4150 | 17940 ± 1330 | 1070 ± 350
